Measurements taken from PubChem BioAssay (NCI).
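Where inhibition never reached the appropriate level, the endpoint shown equals the highest concentration tested. Otherwise, values were interpolated linearly from a five-concentration, 48-hour dose response in 96-well plates. Abbreviation: GI50, concentration required for 50% inhibition of growth. TGI marks complete inhibition of growth.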

Key:
Test in all cases: growth of human tumour cells (NCI), 48 h; in the data active = GI50 below about 0.43 µM; inactive = the rest
[1] = tested on: K-562 leukemia
[2] = tested on: HCT-15 colon
[3] = tested on: HS 578T breast
[4] = tested on: CCRF-CEM leukemia
[5] = tested on: OVCAR-3 ovarian
[6] = tested on: IGROV1 ovarian
[7] = tested on: M14 melanoma
[8] = tested on: NCI/ADR-RES ovarian
[9] = tested on: MDA-MB-231 breast
[10] = tested on: A549 NSCLC
[11] = tested on: HL-60(TB) leukemia
[12] = tested on: COLO 205 colon
[13] = tested on: SK-OV-3 ovarian
[14] = tested on: OVCAR-4 ovarian
[15] = tested on: A498 renal
[16] = tested on: EKVX NSCLC
[17] = tested on: RXF 393 renal
[18] = tested on: MDA-MB-435
[19] = tested on: DU-145 prostate
[20] = tested on: SK-MEL-5 melanoma
[21] = tested on: MOLT-4 leukemia
[22] = tested on: SF-268 CNS
[23] = tested on: LOX IMVI melanoma
[24] = tested on: NCI-H23 lung
[25] = tested on: PC-3 prostate
[26] = tested on: SW-620 colon
[27] = tested on: SK-MEL-2 melanoma
[28] = tested on: ACHN renal
[29] = tested on: UACC-257 melanoma
[30] = tested on: BT-549 breast
[31] = tested on: UACC-62 melanoma
[32] = tested on: SNB-75 CNS
[33] = tested on: MALME-3M melanoma
[34] = tested on: SN12C renal
[35] = tested on: SF-295 CNS
[36] = tested on: SR leukemia
[37] = tested on: TK-10 renal
[38] = tested on: HOP-62 NSCLC
[39] = tested on: SK-MEL-28 melanoma
[40] = tested on: RPMI-8226 leukemia
[41] = tested on: OVCAR-5 ovarian
[42] = tested on: HT29 colon
[43] = tested on: CAKI-1 renal
[44] = tested on: SF-539 CNS
[45] = tested on: NCI-H522 lung
[46] = tested on: MCF7 breast
[47] = tested on: SNB-19 CNS
[48] = tested on: NCI-H460 lung
[49] = tested on: NCI-H226 lung
[50] = tested on: HOP-92 NSCLC
[51] = tested on: UO-31 renal
[52] = tested on: HCC-2998 colon
[53] = tested on: T-47D breast
[54] = tested on: OVCAR-8 ovarian
[55] = tested on: 786-0 renal
[56] = tested on: U251 CNS
[57] = tested on: KM12 colon
[58] = tested on: HCT-116 colon

CCN1C(=O)N(CC)C2C1NN=c1s/c(=C\c3ccc(F)cc3)c(=O)n12 (configuration not stated)
0.622 µM: TGI [17]
0.903 µM: TGI [45]
0.121 µM: TGI [18]
0.611 µM: TGI [32]
> 37.3 µM: TGI [36]
active: GI50 [1] 0.0566 µM | GI50 [2] 0.0876 µM | GI50 [3] 0.183 µM | GI50 [4] 0.265 µM | GI50 [5] 0.0924 µM | GI50 [7] 0.136 µM | GI50 [8] 0.168 µM | GI50 [9] 0.406 µM | GI50 [10] 0.347 µM | GI50 [11] 0.17 µM | GI50 [12] 0.277 µM | GI50 [13] 0.343 µM | GI50 [15] 0.0394 µM | GI50 [16] 0.396 µM | GI50 [17] 0.162 µM | GI50 [18] 0.0317 µM | GI50 [19] 0.3 µM | GI50 [20] 0.0865 µM | GI50 [21] 0.418 µM | GI50 [23] 0.338 µM | GI50 [25] 0.217 µM | GI50 [26] 0.14 µM | GI50 [27] 0.425 µM | GI50 [28] 0.336 µM | GI50 [31] 0.111 µM | GI50 [32] 0.0474 µM | GI50 [35] 0.0819 µM | GI50 [36] 0.0474 µM | GI50 [38] 0.287 µM | GI50 [40] 0.326 µM | GI50 [42] 0.0614 µM | GI50 [43] 0.0722 µM | GI50 [44] 0.158 µM | GI50 [45] 0.0931 µM | GI50 [46] 0.0454 µM | GI50 [47] 0.374 µM | GI50 [48] 0.218 µM | GI50 [52] 0.319 µM | GI50 [56] 0.241 µM | GI50 [57] 0.0913 µM | GI50 [58] 0.211 µM
0.527 µM: TGI [44]
0.514 µM: TGI [11]
> 37.8 µM: TGI [19]
5.7 µM: TGI [20]
> 26.1 µM: TGI [30]
> 63.2 µM: TGI [40]
inactive: GI50 [6] 0.584 µM | GI50 [14] 0.786 µM | GI50 [22] 0.807 µM | GI50 [24] 0.547 µM | GI50 [29] 42.9 µM | GI50 [30] 0.759 µM | GI50 [33] 28.9 µM | GI50 [34] 0.615 µM | GI50 [37] 10.5 µM | GI50 [39] 0.599 µM | GI50 [41] 0.473 µM | GI50 [49] 20.3 µM | GI50 [50] 7.43 µM | GI50 [51] 0.601 µM | GI50 [53] 30.8 µM | GI50 [54] 0.43 µM | GI50 [55] 0.702 µM
> 100 µM: TGI [1] | TGI [2] | TGI [3] | TGI [4] | TGI [6] | TGI [7] | TGI [8] | TGI [10] | TGI [13] | TGI [14] | TGI [16] | TGI [21] | TGI [22] | TGI [23] | TGI [24] | TGI [25] | TGI [26] | TGI [27] | TGI [28] | TGI [29] | TGI [31] | TGI [33] | TGI [34] | TGI [35] | TGI [37] | TGI [38] | TGI [39] | TGI [41] | TGI [42] | TGI [43] | TGI [46] | TGI [47] | TGI [48] | TGI [49] | TGI [50] | TGI [51] | TGI [52] | TGI [53] | TGI [54] | TGI [55] | TGI [56] | TGI [57] | TGI [58]
0.664 µM: TGI [5]
0.33 µM: TGI [15]
1.43 µM: TGI [12]
> 80.2 µM: TGI [9]

Cc1[nH]c(-c2cc(N)ccc2Cl)c2c1C(=O)CCCC2
44.2 µM: TGI [40]
30.4 µM: TGI [20]
6.79 µM: TGI [11]
17.9 µM: TGI [43]
17.8 µM: TGI [3]
63.8 µM: TGI [50]
64.6 µM: TGI [24]
19.5 µM: TGI [18]
7.39 µM: TGI [23]
9.84 µM: TGI [15]
active: GI50 [32] 0.183 µM
29.1 µM: TGI [6]
60.7 µM: TGI [27]
16.5 µM: TGI [52]
32.5 µM: TGI [5]
inactive: GI50 [1] 3.59 µM | GI50 [2] 3.3 µM | GI50 [3] 2.11 µM | GI50 [4] 1.06 µM | GI50 [5] 3.62 µM | GI50 [6] 2.58 µM | GI50 [7] 4.37 µM | GI50 [8] 4.78 µM | GI50 [9] 3.82 µM | GI50 [10] 7.91 µM | GI50 [11] 2.03 µM | GI50 [12] 3.91 µM | GI50 [13] 3.56 µM | GI50 [14] 2.95 µM | GI50 [15] 3.22 µM | GI50 [16] 6.09 µM | GI50 [17] 2.06 µM | GI50 [18] 3.24 µM | GI50 [19] 13.1 µM | GI50 [20] 6.15 µM | GI50 [21] 8.32 µM | GI50 [22] 7.99 µM | GI50 [23] 2.25 µM | GI50 [24] 5.06 µM | GI50 [25] 3.5 µM | GI50 [26] 12.1 µM | GI50 [27] 7.65 µM | GI50 [28] 3.42 µM | GI50 [29] 3.49 µM | GI50 [30] 5.89 µM | GI50 [31] 0.809 µM | GI50 [33] 2.12 µM | GI50 [34] 5.01 µM | GI50 [35] 8.01 µM | GI50 [36] 2.64 µM | GI50 [37] 2.19 µM | GI50 [38] 2.29 µM | GI50 [39] 6.5 µM | GI50 [40] 3.63 µM | GI50 [41] 6.54 µM | GI50 [42] 2.7 µM | GI50 [43] 0.702 µM | GI50 [44] 3.13 µM | GI50 [45] 1.13 µM | GI50 [46] 2.32 µM | GI50 [47] 4.53 µM | GI50 [48] 10.3 µM | GI50 [49] 3.37 µM | GI50 [50] 1.93 µM | GI50 [51] 0.477 µM | GI50 [52] 3.39 µM | GI50 [53] 3.47 µM | GI50 [54] 3.26 µM | GI50 [55] 3.24 µM | GI50 [56] 5.75 µM | GI50 [57] 5.47 µM | GI50 [58] 3.92 µM
31 µM: TGI [37]
7.2 µM: TGI [31]
15.1 µM: TGI [51]
26.7 µM: TGI [44]
15.2 µM: TGI [45]
36.6 µM: TGI [13]
> 100 µM: TGI [1] | TGI [2] | TGI [4] | TGI [7] | TGI [8] | TGI [9] | TGI [10] | TGI [12] | TGI [14] | TGI [16] | TGI [19] | TGI [21] | TGI [22] | TGI [25] | TGI [28] | TGI [29] | TGI [30] | TGI [34] | TGI [35] | TGI [36] | TGI [38] | TGI [39] | TGI [41] | TGI [42] | TGI [46] | TGI [47] | TGI [48] | TGI [49] | TGI [53] | TGI [54] | TGI [55] | TGI [56] | TGI [57] | TGI [58]
6.06 µM: TGI [17]
5.2 µM: TGI [32]
9.94 µM: TGI [33]
55.6 µM: TGI [26]
